Results as given in article PMC8931498 (Frontiers in Pharmacology, 2022).
Read-outs that look alike come from different tables or passages of the source.

Columns and labels:
human ABCB1 = test system: human ABCB1; set-up: method as in Tournier et al. (2010); conditions: hABCB1-transfected HEK293 cells, flow cytometric assay; ref Tournier et al. (2010); cited from earlier work
human ABCG2 = test system: human ABCG2; set-up: method as in Tournier et al. (2010); conditions: hABCG2-transfected HEK293 cells, flow cytometric assay; ref Tournier et al. (2010); cited from earlier work
[1] = set-up: method as in Mačiulaitis et al., 2008; conditions: in 24 h in rats; ref Mačiulaitis et al., 2008; cited from earlier work
[2] = Tissue distribution 2 h after oral ibogaine in wild-type, Abcg2-/- and Abcb1a/1b;Abcg2-/- mice; assay type: in vivo; conditions: for Kp at 2 h: mouse, po, 10 mg/kg; for fold decrease in total amount (% of dose) in SIWC corrected for plasma AUC over 2 h: small intestine with fecal content, oral 10 mg/kg ibogaine
Experimental: (§1) In each experiment, six to seven mice were used per strain. […] To reduce variation in absorption upon oral administration, mice were fasted for 2–3 h before dosing. […] At either 2 or 8 h after dosing, mice were deeply anesthetized with isoflurane (3%), followed by cardiac puncture to collect blood (at least 600 μL) in Eppendorf tubes using heparin as an anticoagulant. The mice were then sacrificed by cervical dislocation, and tissues including the brain, liver (without gallbladder), kidneys, spleen, small intestine together with the fecal content (SIWC), heart, and subcutaneous inguinal white adipose tissue were collected and weighed. For the 2 h experiment, the gallbladder with content was also (separately) collected in an Eppendorf tube and weighed. Plasma was obtained from blood samples by centrifugation at 9,000 g for 6 min at 4 °C. Tissue homogenates (except gallbladder) were obtained using the Fast Prep-24 5G homogenizer (MP Biomedicals Inc., Santa Ana, CA, United States). Before homogenization, Bovine Serum Albumin (BSA, Fraction V) was dissolved at a concentration of 2% (w/v) in distilled water. Three mL of ice-cold 2% BSA were added to liver and SIWC; 2 ml to kidneys; 1 ml to brain, spleen, and heart; and 2–3 ml to the white adipose tissue (depending on the tissue weight). For the gallbladder, 150 μL of 2% BSA was added; then, the samples were centrifuged (9,000 x g, 4°C, 6 min), and only the supernatant was collected for analysis. Both plasma and tissue samples were kept at −70°C in amber-colored Eppendorf tubes until analysis.
(§2) A volume of 50 µL human plasma sample, a 5-fold diluted mouse plasma sample (10 uL + 40 uL control human plasma), or 100 µL homogenized tissue sample were processed. […] To the 50 uL plasma samples, 20 uL of a working solution containing both internal standards at a concentration of 10 ng/ml in methanol (WIS10) was added. Sample pre-treatment involved protein precipitation with 150 uL of acetonitrile-methanol (1:1, v/v). For the tissue homogenates (100 uL sample aliquots), 40 uL of WIS10 was added, and 300 uL precipitation reagent as sample cleanup. After centrifuging the samples (10 min, 4°C, 15,000 x g), 100 µL of the supernatant was transferred to an amber-colored autosampler vial with insert. Then 100 µL of 4 mM ammonium formate pH 3.5 in water was added, and after vortex mixing, the extracts were injected (5 uL) onto a UPLC system (Acquity UPLC I-Class IVD system, Waters, Milford, MA, United States) equipped with an Acquity UPLC HSS T3 Column (150 × 2.1 mm ID, 1.8 µm). The tray temperature was set to 5 ± 3°C, and the analytical column was kept at 50°C. Gradient elution was applied using 4 mM ammonium formate pH 3.5 in water as eluent A and acetonitrile as eluent B. The flow rate was 500 μL/min, and the total runtime was 6 min. Detection was performed in the positive ion mode on a Quadrupole MS/MS detector with a Turbo Ion Spray Interface (QTRAP5500, Sciex, Framingham, MA, United States). The ionspray voltage was 2250 V, and the spray temperature was 700 °C. Gas settings, potentials, and collision energies were optimized by infusion of the analytes and by flow injection analysis.
(§3) Pharmacokinetic parameters were calculated by non-compartmental methods using the Microsoft Excel menu-driven add-in program PKsolver ([Zhang et al., 2010]). The area under the plasma concentration-time curve (AUC) was calculated with the trapezoidal rule without extrapolating to infinity. The peak plasma concentration (Cmax) and the time to reach Cmax (Tmax) were estimated from the original data. […] GraphPad Prism 9 (GraphPad Software Inc., San Diego, CA, United States) was used to plot the data and to perform statistical analysis. To determine whether the most extreme value in a data set was a significant outlier from the rest, the Grubbs’s (or extreme studentized variate) test was applied (α = 0.05). All data were log-transformed before statistical analysis. […]

[3] = Plasma pharmacokinetics over 8 h after oral ibogaine in wild-type, Cyp3a-/- and Cyp3aXAV mice; assay type: in vivo; conditions: female, mouse, 10 mg/kg; for AUC(0-t): read-out: AUC0-8h
Experimental: as §1, §2, §3

[4] = Plasma pharmacokinetics over 2 h after oral ibogaine in wild-type, Abcg2-/- and Abcb1a/1b;Abcg2-/- mice; assay type: in vivo; conditions: for Fold increase AUC0-2h: oral 10 mg/kg ibogaine; for Tmax / Cmax / AUC(0-t): mouse, plasma, po, 10 mg/kg; for AUC(0-t): read-out: AUC0-2h
Experimental: as §1, §2, §3

[5] = set-up: method as in Luz and Mash, 2021; conditions: ref Luz and Mash, 2021; cited from earlier work
[6] = Plasma pharmacokinetics over 2 h after oral ibogaine in wild-type, Oatp1a/1b-/-, Oatp1a/1b-/-;1B1tg and Oatp1a/1b-/-;1B3tg mice; assay type: in vivo; conditions: for Fold increase AUC0-2h: oral 10 mg/kg ibogaine; for Cmax / Tmax / AUC(0-t): female, mouse, plasma, po, 10 mg/kg; for AUC(0-t): read-out: AUC0-2h
Experimental: as §1, §2, §3

[7] = Tissue accumulation 2 h after oral ibogaine in wild-type and Oatp1a/1b-deficient mouse strains; assay type: in vivo, mice; conditions: for fold reduction in liver accumulation: tissue concentration relative to plasma AUC0-2h, oral 10 mg/kg ibogaine
Experimental: as §1
A volume of 50 µL human plasma sample, a 5-fold diluted mouse plasma sample (10 uL + 40 uL control human plasma), or 100 µL homogenized tissue sample were processed. […] To the 50 uL plasma samples, 20 uL of a working solution containing both internal standards at a concentration of 10 ng/ml in methanol (WIS10) was added. Sample pre-treatment involved protein precipitation with 150 uL of acetonitrile-methanol (1:1, v/v). For the tissue homogenates (100 uL sample aliquots), 40 uL of WIS10 was added, and 300 uL precipitation reagent as sample cleanup. After centrifuging the samples (10 min, 4°C, 15,000 x g), 100 µL of the supernatant was transferred to an amber-colored autosampler vial with insert. […]
Pharmacokinetic parameters were calculated by non-compartmental methods using the Microsoft Excel menu-driven add-in program PKsolver ([Zhang et al., 2010]). The area under the plasma concentration-time curve (AUC) was calculated with the trapezoidal rule without extrapolating to infinity. […]

[8] = wild-type, inguinal white adipose tissue, read-out: adipose tissue-to-plasma distribution ratio
[9] = Abcb1a/1b;Abcg2-/- mice vs wild-type
[10] = Oatp1a/1b-/-;1B1tg mice vs wild-type
[11] = Oatp1a/1b-/-;1B3tg mice vs wild-type

ibogaine
inhibition of human ABCB1 (human ABCB1): significantly inhibited in a concentration-dependent manner | inhibition of human ABCG2 (human ABCG2): significantly inhibited in a concentration-dependent manner

CCC1CC2CC3c4[nH]c5ccc(O)cc5c4CCN(C2)C13 (centres unmarked) [Noribogaine, 12-hydroxyibogamine]
excreted via urine and feces, % of the administered dose [1]: 60–70% | Kp at 2 h ([2]; Abcb1a/1b;Abcg2-/-, brain, read-out: brain-to-plasma ratio): 8.3 | liver-to-plasma ratios, times higher than gallbladder-to-plasma ratios ([2]; WT, Abcg2-/- and Abcb1a/1b;Abcg2-/- mice, 2 h after oral 10 mg/kg ibogaine): at least 3 times | absolute brain concentrations, fold higher than those of ibogaine ([2]; wild-type mice, both at 2 and 8 h after oral 10 mg/kg ibogaine): ≥ 100 fold | Kp at 2 h ([2]; wild-type, brain, read-out: brain-to-plasma ratio): 7.2 | Kp at 2 h [2, 8]: 2.8 | Cmax ([3]; Cyp3a-/-): 280 ± 75 ng/mL | Tmax ([3]; Cyp3a-/-): 0.5 h | AUC(0-t) ([3]; Cyp3a-/-): 1070 ± 320 ng·h/mL | Cmax ([3]; Cyp3aXAV): 328 ± 75 ng/mL | Tmax ([3]; Cyp3aXAV): 0.5 h | AUC(0-t) ([3]; Cyp3aXAV): 1400 ± 320 ng·h/mL | Cmax ([3]; wild-type): 217 ± 37 ng/mL | Tmax ([3]; wild-type): 0.5 h | AUC(0-t) ([3]; wild-type): 655 ± 220 ng·h/mL | Fold increase AUC0-2h [4, 9]: 1.2 | Tmax ([4]; Abcb1a/1b;Abcg2-/-): 0.25 h | Fold increase AUC0-2h ([4]; Abcg2-/- mice vs wild-type): 1.1 | Tmax ([4]; Abcg2-/-): 0.25 h | Cmax ([4]; female, Abcb1a/1b;Abcg2-/-): 276 ± 98 ng/mL | AUC(0-t) ([4]; female, Abcb1a/1b;Abcg2-/-): 419 ± 126 ng·h/mL | Cmax ([4]; female, Abcg2-/-): 233 ± 61 ng/mL | AUC(0-t) ([4]; female, Abcg2-/-): 381 ± 108 ng·h/mL | Cmax ([4]; female, wild-type): 208 ± 70 ng/mL | Tmax ([4]; female, wild-type): 0.5 h | AUC(0-t) ([4]; female, wild-type): 339 ± 107 ng·h/mL | Fold increase AUC0-2h ([4]; wild-type mice (reference)): 1.0 | half-life in plasma [5]: 24 to 30 h | Fold increase AUC0-2h ([6]; Oatp1a/1b-/- mice vs wild-type): 1.4 | Fold increase AUC0-2h [6, 10]: 1.7 | Fold increase AUC0-2h [6, 11]: 1.5 | Cmax ([6]; Oatp1a/1b-/-): 290 ± 73 ng/mL | Tmax ([6]; Oatp1a/1b-/-): 0.5 h | AUC(0-t) ([6]; Oatp1a/1b-/-): 458 ± 110 ng·h/mL | Cmax ([6]; Oatp1a/1b-/-;1B1tg): 417 ± 95 ng/mL | Tmax ([6]; Oatp1a/1b-/-;1B1tg): 0.25 h | AUC(0-t) ([6]; Oatp1a/1b-/-;1B1tg): 578 ± 86 ng·h/mL | Cmax ([6]; Oatp1a/1b-/-;1B3tg): 411 ± 107 ng/mL | Tmax ([6]; Oatp1a/1b-/-;1B3tg): 0.25 h | AUC(0-t) ([6]; Oatp1a/1b-/-;1B3tg): 519 ± 100 ng·h/mL | Cmax ([6]; wild-type): 209 ± 70 ng/mL | Tmax ([6]; wild-type): 0.5 h | AUC(0-t) ([6]; wild-type): 339 ± 107 ng·h/mL | Fold increase AUC0-2h ([6]; wild-type mice (reference)): 1.0 | fold reduction in liver accumulation ([7]; Oatp1a/1b-/- mice compared to WT): 1.6 fold | fold reduction in liver accumulation ([7]; Oatp1a/1b-/-;1B1tg mice compared to WT): 1.8 fold | fold reduction in liver accumulation ([7]; Oatp1a/1b-/-;1B3tg mice compared to WT): 2.1 fold

CCC1CC2CC3c4[nH]c5ccc(OC6OC(C(=O)O)C(O)C(O)C6O)cc5c4CCN(C2)C13 (centres unmarked) [Noribogaine glucuronide, noribogaine glucuronide]
fold decrease in liver-to-plasma ratio ([2]; Abcb1a/1b;Abcg2-/- mice compared to WT, 2 h after oral 10 mg/kg ibogaine): 1.7 fold | fold decrease in total amount (% of dose) in SIWC corrected for plasma AUC over 2 h ([2]; Abcb1a/1b;Abcg2-/- mice compared to WT): 2.1 fold | gallbladder-to-plasma ratio, fold lower than in WT ([2]; Abcb1a/1b;Abcg2-/- vs WT mice, not statistically significant, 2 h after oral 10 mg/kg ibogaine): more than 2 fold | fold decrease in total amount (% of dose) in SIWC corrected for plasma AUC over 2 h ([2]; Abcg2-/- mice compared to WT): 1.5 fold | Kp at 2 h [2, 8]: 0.058 | Cmax ([3]; Cyp3a-/-): 114 ± 24 ng/mL | Tmax ([3]; Cyp3a-/-): 1 h | AUC(0-t) ([3]; Cyp3a-/-): 422 ± 110 ng·h/mL | Cmax ([3]; Cyp3aXAV): 123 ± 28 ng/mL | Tmax ([3]; Cyp3aXAV): 1 h | AUC(0-t) ([3]; Cyp3aXAV): 536 ± 117 ng·h/mL | Cmax ([3]; wild-type): 70 ± 13.6 ng/mL | Tmax ([3]; wild-type): 1 h | AUC(0-t) ([3]; wild-type): 219 ± 50 ng·h/mL | Fold increase AUC0-2h [4, 9]: 1.5 | Tmax ([4]; Abcb1a/1b;Abcg2-/-): 2 h | Fold increase AUC0-2h ([4]; Abcg2-/- mice vs wild-type): 1.1 | Tmax ([4]; Abcg2-/-): 2 h | Cmax ([4]; female, Abcb1a/1b;Abcg2-/-): 156 ± 31 ng/mL | AUC(0-t) ([4]; female, Abcb1a/1b;Abcg2-/-): 240 ± 46 ng·h/mL | Cmax ([4]; female, Abcg2-/-): 122 ± 27 ng/mL | AUC(0-t) ([4]; female, Abcg2-/-): 184 ± 32 ng·h/mL | Cmax ([4]; female, wild-type): 125 ± 30 ng/mL | Tmax ([4]; female, wild-type): 2 h | AUC(0-t) ([4]; female, wild-type): 164 ± 12 ng·h/mL | Fold increase AUC0-2h ([4]; wild-type mice (reference)): 1.0 | Fold increase AUC0-2h ([6]; Oatp1a/1b-/- mice vs wild-type): 1.5 | Fold increase AUC0-2h [6, 10]: 1.8 | Fold increase AUC0-2h [6, 11]: 1.4 | Cmax ([6]; Oatp1a/1b-/-): 155 ± 20 ng/mL | Tmax ([6]; Oatp1a/1b-/-): 2 h | AUC(0-t) ([6]; Oatp1a/1b-/-): 244 ± 30 ng·h/mL | Cmax ([6]; Oatp1a/1b-/-;1B1tg): 199 ± 59 ng/mL | Tmax ([6]; Oatp1a/1b-/-;1B1tg): 1 h | AUC(0-t) ([6]; Oatp1a/1b-/-;1B1tg): 294 ± 65 ng·h/mL | Cmax ([6]; Oatp1a/1b-/-;1B3tg): 162 ± 25 ng/mL | Tmax ([6]; Oatp1a/1b-/-;1B3tg): 1 h | AUC(0-t) ([6]; Oatp1a/1b-/-;1B3tg): 236 ± 24 ng·h/mL | Cmax ([6]; wild-type): 125 ± 30 ng/mL | Tmax ([6]; wild-type): 2 h | AUC(0-t) ([6]; wild-type): 164 ± 12 ng·h/mL | Fold increase AUC0-2h ([6]; wild-type mice (reference)): 1.0 | gallbladder-to-plasma ratio, fold higher than liver-to-plasma ratio ([7]; WT mice, 2 h after oral 10 mg/kg ibogaine): about 10 fold
